# Measurements reported in patent publication US20250352520A1, “USE OF DEXPRAMIPEXOLE FOR THE TREATMENT OF EOSINOPHILIC COPD” (Areteia Therapeutics, Inc., priority 2024, published 2025).
# Settings: Week 16; >=50% AEC reduction at Week 16
smiles,measurement,value
"CCCN[C@@H]1CCc2nc(N)sc2C1 [Dexpramipexole, (6R)-2-amino-4,5,6,7-tetrahydro-6-(propylamino)benzothiazole]","Pre-BD FEF25-75 % change from baseline, Max",27%
same,"Pre-BD FEF25-75 % change from baseline, Mean ± SD",13.6 ± 13.59%
same,"Pre-BD FEF25-75 % change from baseline, Median",13.7%
same,"Pre-BD FEF25-75 % change from baseline, Min",0%
same,"Pre-BD FEF25-75 % change from baseline, Q1",0%
same,"Pre-BD FEF25-75 % change from baseline, Q3",27%
same,"Pre-BD FEF25-75 Observed, Max",1170 mL/s
same,"Pre-BD FEF25-75 Observed, Mean ± SD",736.7 ± 486.76 mL/s
same,"Pre-BD FEF25-75 Observed, Median",830.0 mL/s
same,"Pre-BD FEF25-75 Observed, Min",210 mL/s
same,"Pre-BD FEF25-75 Observed, Q1",210 mL/s
same,"Pre-BD FEF25-75 Observed, Q3",1170 mL/s
same,"Pre-BD FEF25-75 change from baseline, Max",250 mL/s
same,"Pre-BD FEF25-75 change from baseline, Mean ± SD",116.7 ± 125.83 mL/s
same,"Pre-BD FEF25-75 change from baseline, Median",100.0 mL/s
same,"Pre-BD FEF25-75 change from baseline, Min",0 mL/s
same,"Pre-BD FEF25-75 change from baseline, Q1",0 mL/s
same,"Pre-BD FEF25-75 change from baseline, Q3",250 mL/s
same,"Pre-BD FEV1 % change from baseline, Max",52%
same,"Pre-BD FEV1 % change from baseline, Mean ± SD",22.5 ± 25.80%
same,"Pre-BD FEV1 % change from baseline, Median",8.3%
same,"Pre-BD FEV1 % change from baseline, Min",7%
same,"Pre-BD FEV1 % change from baseline, Q1",7%
same,"Pre-BD FEV1 % change from baseline, Q3",52%
same,"Pre-BD FEV1 Observed, Max",1980 mL
same,"Pre-BD FEV1 Observed, Mean ± SD",1523.3 ± 657.29 mL
same,"Pre-BD FEV1 Observed, Median",1820.0 mL
same,"Pre-BD FEV1 Observed, Min",770 mL
same,"Pre-BD FEV1 Observed, Q1",770 mL
same,"Pre-BD FEV1 Observed, Q3",1980 mL
same,"Pre-BD FEV1 change from baseline, Max",680 mL
same,"Pre-BD FEV1 change from baseline, Mean ± SD",290.0 ± 340.73 mL
same,"Pre-BD FEV1 change from baseline, Median",140.0 mL
same,"Pre-BD FEV1 change from baseline, Min",50 mL
same,"Pre-BD FEV1 change from baseline, Q1",50 mL
same,"Pre-BD FEV1 change from baseline, Q3",680 mL
same,"Pre-BD FVC % change from baseline, Max",29%
same,"Pre-BD FVC % change from baseline, Mean ± SD",13.7 ± 13.73%
same,"Pre-BD FVC % change from baseline, Median",10.0%
same,"Pre-BD FVC % change from baseline, Min",2%
same,"Pre-BD FVC % change from baseline, Q1",2%
same,"Pre-BD FVC % change from baseline, Q3",29%
same,"Pre-BD FVC Observed, Max",3250 mL
same,"Pre-BD FVC Observed, Mean ± SD",2743.3 ± 470.57 mL
same,"Pre-BD FVC Observed, Median",2660.0 mL
same,"Pre-BD FVC Observed, Min",2320 mL
same,"Pre-BD FVC Observed, Q1",2320 mL
same,"Pre-BD FVC Observed, Q3",3250 mL
same,"Pre-BD FVC change from baseline, Max",730 mL
same,"Pre-BD FVC change from baseline, Mean ± SD",333.3 ± 351.62 mL
same,"Pre-BD FVC change from baseline, Median",210.0 mL
same,"Pre-BD FVC change from baseline, Min",60 mL
same,"Pre-BD FVC change from baseline, Q1",60 mL
same,"Pre-BD FVC change from baseline, Q3",730 mL
same,"Pre-BD Peak Flow % change from baseline, Max",115%
same,"Pre-BD Peak Flow % change from baseline, Mean ± SD",50.4 ± 56.32%
same,"Pre-BD Peak Flow % change from baseline, Median",21.5%
same,"Pre-BD Peak Flow % change from baseline, Min",14%
same,"Pre-BD Peak Flow % change from baseline, Q1",14%
same,"Pre-BD Peak Flow % change from baseline, Q3",115%
same,"Pre-BD Peak Flow Observed, Max",338 L/min
same,"Pre-BD Peak Flow Observed, Mean ± SD",240.0 ± 88.20 L/min
same,"Pre-BD Peak Flow Observed, Median",215.0 L/min
same,"Pre-BD Peak Flow Observed, Min",167 L/min
same,"Pre-BD Peak Flow Observed, Q1",167 L/min
same,"Pre-BD Peak Flow Observed, Q3",338 L/min
same,"Pre-BD Peak Flow change from baseline, Max",181 L/min
same,"Pre-BD Peak Flow change from baseline, Mean ± SD",80.0 ± 87.88 L/min
same,"Pre-BD Peak Flow change from baseline, Median",38.0 L/min
same,"Pre-BD Peak Flow change from baseline, Min",21 L/min
same,"Pre-BD Peak Flow change from baseline, Q1",21 L/min
same,"Pre-BD Peak Flow change from baseline, Q3",181 L/min
